Data reported in patent publication US20160230142A1, “CORNEAL STROMAL KERATOCYTE CULTURE” (SINGAPORE HEALTH SERVIES PTE LTD., priority 2013, published 2016).

Assays:
Format in all cases: cell-based
primary human CSKs = test: F-actin stress fiber pattern by phalloidin staining (stress index)
Procedure: Cornea specimens were washed in sterile PBS (0.01 M, Invitrogen, Carlsbad, Calif., US) added with 3% antibiotics-antimycotes (penicillin S, streptomysin sulfate and amphoptericin B, Invitrogen). Central corneal buttons (1 mm from peripheral limbus) were trephined and treated with dispase II (20 mg/ml, Roche, Basal, Switzerland) to remove corneal epithelium and endothelium. The stroma tissue was trimmed into small fragments (˜1 mm^3 in size) and digested with collagenase I (0.1%, Worthington, Lakewood, N.J., US) in keratocyte basal medium (KBM) for 8 to 10 hours at 37° C. After repeat pipetting, the cell suspension was passed through cell strainer (40 μm pore size), followed by centrifugation at 400 g for 5 min at room temperature. […]
The samples were fixed with freshly prepared 2% neutral buffered paraformaldehyde (Sigma), quenched with ice-cold 50 mM ammonium chloride (Sigma) and permeabilized with 0.15% saponin (Sigma). […] Results were visualized under fluorescence microscopy (Carl Zeiss) or confocal laser-scanning microscopy (LSM 510 Meta, Carl Zeiss).
[…] The percentage of stress cells in triplicate experiments was expressed as mean±SD. Results were compared and analyzed by paired Student's t-test and Dunn-Bonferroni correction.

[1] = system: human CSKs (at passage 6); test: Collagen gel contraction assay; settings: TGFβ1 (20 ng/ml) added to KBM with 2% FBS, 48 hours
Procedure: Bovine type I collagen gels were made to a final concentration of 2.5 mg/ml as liquid with KBM and supplements. It was mixed with cells at a density of 10^5 cells/ml and 0.5 ml mixture was added to each well of 24-multiwell plate coated with 1% BSA. It was allowed to gelation at 37° C. for 1 hour before addition of appropriate medium. After 24 hours, the gel was released from the side of culture well with a sterile needle to initiate contraction. The collagen gel size change was recorded at 48-hour interval and measured using Image J software (NIH). The percentages of collagen gel size to the size of culture well were compared among different treatments. Experiment was done in quadruplicate and the percentages of gel contraction were represented as median and interquartile range. Intergroup significance was calculated by Mann-Whitney U test.

Smad2/3 = test: TGFβ-mediated nuclear localization of Smad2/3 (immunofluorescence); settings: TGFβ1 10 ng/ml, human CSKs at passage 5
Procedure: The samples were fixed with freshly prepared 2% neutral buffered paraformaldehyde (Sigma), quenched with ice-cold 50 mM ammonium chloride (Sigma) and permeabilized with 0.15% saponin (Sigma). After blocking with 2% bovine serum albumin (Sigma) and 2% normal goat serum (Invitrogen), the cells were incubated with primary antibody recognizing aldehyde dehydrogenase 1A1 (ALDH1A1, Proteintech), lumican (LUM, Bioss), transketolase (Tkt, Cell Signalling), αSMA (Sigma) or Alexa Fluor 543-conjugated phalloidin (Sigma), respectively. The secondary antibodies were either Alexa488 or Rhodamine Red-X-conjugated (Jackson ImmunoRes Lab, West Grove, Pa.). All nuclei were counterstained with DAPI (4′,6-diamidino-2-phenylindole, Santa Cruz) and samples were mounted in FluorShield (Sigma). Results were visualized under fluorescence microscopy (Carl Zeiss) or confocal laser-scanning microscopy (LSM 510 Meta, Carl Zeiss).
To examine if LAE (ASE) was effective in suppressing CSK transition to fibroblasts, TGFβ-mediated nuclear localization of Smad2/3 was studied.

Molecule: C[C@@H](N)[C@H]1CC[C@H](C(=O)Nc2ccncc2)CC1 [Y27632, (1R,4r)-4-((R)-1-aminoethyl)-N-(pyridin-4-yl)cyclohexanecarboxamide]
- stress index (percentage of cells with stress fibre pattern) (primary human CSKs; Y27632 (10 μM) added to KBM+0.5% FBS, 5 random fields): 7.6±2.9%

Molecule: IGF1: insulin-like growth factor 1 (10 ng/ml, Invitrogen)
- cells with stress F-actin fibre (primary human CSKs; IGF1-treated cells with 0.5% FBS): 29.3±7.3%

Molecule: TGFβ1: recombinant human TGFβ1
- gel contraction (median) [1]: 91.7%
- cells with nuclear Smad2/3 (Smad2/3; 3 days): 43.8%
- cells with nuclear Smad2/3 (Smad2/3; incubated for 3 hours): 22%
